Results published in patent US20220306603A1, “TARGETING DNA REPAIR IN TUMOR CELLS VIA INHIBITION OF ERCC1-XPF” (The Governors of the University of Alberta, priority 2019, published 2022).
Entries after “also recorded” stand apart in the source; their conditions may differ.

Key:
[1] = biological target: CYP3A4-M (Homo sapiens, UniProt P08684); assay: CYP450 inhibition, CYP3A4-M
[2] = ADME screening: LogD; conditions: Table 8
[3] = Microsomal stability in vitro (human liver microsomes)
[4] = test system: HCT116 cells; assay: Cellular repair of UV-induced cyclobutane pyrimidine dimers (immunofluorescence); assay type: cell-based, human
Procedure: Protocol of Mirzayans et al. was followed with minor modifications (30). Approximately 1×10^5 HCT116 cells were seeded on each coverslip and allowed to attach overnight. Medium was then removed and cells were treated for one hour with the desired compound. The medium was removed, and cells were exposed to 8 J/m^2 UV-C radiation (G15T8 254 nm lamp, Ushio America Inc, Cypress, Calif.) followed by adding fresh medium containing the compound. Plates were incubated at 37° C. for different periods of time up to 24 hours and fixed in 50:50 methanol/1× phosphate-buffered saline (PBS) solution, followed by replacing the methanol/PBS solution with 100% methanol and incubation in −20° C. After 20 minutes, methanol was removed, and cells were treated with PBS for 5 minutes in room temperature. After fixing, cells were permeabilized in 0.5% Triton/PBS and washed with PBS, denatured in 2 N HCl, and neutralized by twice washing with 0.1 M borate buffer pH 8.5. Cells on cover slips were washed once with PBS followed by blocking with 5% non-fat dry milk/PBS for 30 minutes. Mouse anti-thymine dimer monoclonal antibody (Cat. No. MC-062, Kamiya Biomedical Company, Seattle, Wash.) was applied to the cover slips for one hour in the dark and at room temperature. Cells were then washed with PBS containing 0.1% Tween-20 and incubated with rabbit anti-mouse IgG-Alexafluor antibody (Invitrogen, Carlsbad, Calif.) followed by two washes with PBS/(0.1%)Tween-20. Cells on coverslips were then washed with PBS, rinsed with water, and mounted on slides using DAPI glycerol mounting solution. Slides were kept at 4° C. before fluorescent microscopic evaluation and measurement of fluorescence intensity with MetaXpress Version: 6.2.1.704 software (Molecular Devices, Sunnyvale, Calif.).
To test for inhibition of nucleotide excision repair, we monitored the cellular removal of UVC-induced cyclobutane pyrimidine dimers (CPDs) in HCT116 cells over a 24-hour period using an immunochemical assay.

[5] = test system: serum proteins; assay: ADME screening: serum protein binding; assay type: in vitro ADME; conditions: Table 8
[6] = Hepatocyte stability in vitro; assay type: in vitro ADME; conditions: Table 8
[7] = biological target: T1, ERCC1-XPF (Homo sapiens, UniProt Q92889); assay: Microplate fluorescence incision assay of ERCC1-XPF endonuclease activity; assay type: biochemical; conditions: for inhibition of ERCC1-XPF endonuclease activity (in words): compounds 10 μM each
T1 construct: His6; made in house; host or cells: E. coli BL21 (DE3)
T1 sequence (Q92889 1-916): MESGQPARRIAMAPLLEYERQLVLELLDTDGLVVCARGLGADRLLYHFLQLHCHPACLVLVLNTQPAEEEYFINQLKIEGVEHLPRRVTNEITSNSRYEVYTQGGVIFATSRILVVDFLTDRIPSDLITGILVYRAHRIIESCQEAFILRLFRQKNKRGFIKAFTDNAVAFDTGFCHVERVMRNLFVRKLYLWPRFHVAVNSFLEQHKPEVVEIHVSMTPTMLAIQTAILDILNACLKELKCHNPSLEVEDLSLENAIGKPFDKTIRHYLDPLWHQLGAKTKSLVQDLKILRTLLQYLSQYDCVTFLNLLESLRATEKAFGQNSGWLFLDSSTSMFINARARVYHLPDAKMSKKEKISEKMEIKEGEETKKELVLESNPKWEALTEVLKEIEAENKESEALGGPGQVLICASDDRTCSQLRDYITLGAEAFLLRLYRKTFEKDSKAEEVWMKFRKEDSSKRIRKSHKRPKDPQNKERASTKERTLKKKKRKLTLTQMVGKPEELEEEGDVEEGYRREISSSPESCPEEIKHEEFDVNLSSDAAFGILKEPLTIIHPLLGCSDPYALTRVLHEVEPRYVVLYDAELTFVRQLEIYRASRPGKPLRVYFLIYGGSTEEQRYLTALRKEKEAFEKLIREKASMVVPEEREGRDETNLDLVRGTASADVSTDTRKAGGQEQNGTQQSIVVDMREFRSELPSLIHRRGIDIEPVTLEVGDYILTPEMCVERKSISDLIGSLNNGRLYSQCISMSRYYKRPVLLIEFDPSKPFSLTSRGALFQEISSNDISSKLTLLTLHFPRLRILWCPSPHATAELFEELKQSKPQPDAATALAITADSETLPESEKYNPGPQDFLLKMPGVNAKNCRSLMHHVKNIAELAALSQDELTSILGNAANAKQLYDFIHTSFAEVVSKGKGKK
Excerpt: This assay has been previously described (29), and utilizes a stem-loop substrate (composed of a 10mer-duplex stem and a 20mer-oligodT single-strand loop), labelled on the 5′-terminus with 6-FAM and 3′ with the quencher dabcyl.
Human ERCC1-XPF wild-type protein was obtained as previously described (29). Basically, the recombinant protein was expressed from a bicistronic plasmid (provided by Dr. Richard Wood, University of Texas MD Anderson Cancer Center, Smithville, Tex.) in the E. coli BL21 (DE3) strain. Since both XPF and ERCC1 contained a polyhistidine (His-6) tag, the proteins extracted from E. coli were incubated with a ProBond Nickel-Chelating Resin (Thermo Fisher Scientific). Protein eluted from the Ni affinity column was subsequently loaded into a Hi-trap heparin column (GE Healthcare). Fractions recovered from the heparin column that contained ERCC1-XPF were dialyzed, concentrated and stored at −80° C. in 10 mM HEPES pH 7.4, 2.5 mM p-mercaptoethanol, 0.01% CHAPS, 0.25 mM EDTA, 50% glycerol and 25 mM NaCl.
A previously described protocol (2,29) was followed.

[8] = biological target: T2, ERCC1-XPF complex (Homo sapiens, UniProt Q92889); assay: Steady-state intrinsic tryptophan fluorescence quenching binding assay; conditions: 2 μM compound; excitation 295 nm
T2 construct: His6; made in house; host or cells: E. coli BL21 (DE3)
T2 sequence (Q92889 1-916): T1 sequence (Q92889 1-916)
Procedure: Steady-state fluorescence spectra were measured at room temperature on a Perkin-Elmer LS-55 spectrofluorometer (Freemont, Calif.) with 5 nm spectral resolution for excitation and emission using 30-80 nM solution of purified recombinant ERCC1-XPF protein complex. […] In studying the effects of inhibitors on protein fluorescence intensities, additions to protein samples were made from inhibitors stock solutions, keeping the protein dilution below 3%.

CYP3A4-M, sequence (P08684 whole entry): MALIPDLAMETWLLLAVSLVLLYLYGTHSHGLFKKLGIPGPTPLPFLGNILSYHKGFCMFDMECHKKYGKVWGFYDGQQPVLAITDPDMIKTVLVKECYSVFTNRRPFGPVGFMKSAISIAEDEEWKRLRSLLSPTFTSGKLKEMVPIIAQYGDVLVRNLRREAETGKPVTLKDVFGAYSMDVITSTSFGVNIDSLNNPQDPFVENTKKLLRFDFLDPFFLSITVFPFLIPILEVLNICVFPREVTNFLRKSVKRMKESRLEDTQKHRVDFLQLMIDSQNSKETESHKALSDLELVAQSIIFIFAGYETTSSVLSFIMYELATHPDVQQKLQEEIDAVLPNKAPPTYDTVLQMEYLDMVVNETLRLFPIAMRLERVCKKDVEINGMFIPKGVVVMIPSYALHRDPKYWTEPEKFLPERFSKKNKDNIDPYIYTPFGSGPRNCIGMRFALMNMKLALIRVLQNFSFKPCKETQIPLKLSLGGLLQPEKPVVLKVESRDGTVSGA

Compound: COc1ccc2nc3cc(Cl)ccc3c(Nc3ccc(O)c(CN4CCN(CCN(C)C)CC4)c3)c2c1 [Compound A4, 4-((6-Chloro-2-methoxyacridin-9-yl)amino)-2-((4-(2-(dimethylamino)ethyl)piperazin-1-yl)methyl) phenol]
- inhibition of CYP3A4-M (in words) [1]: weak inhibitor
- LogD (rating) [2]: Good
- logD [2]: 2.86
- metabolism on exposure to human liver microsomes (in words) [3]: metabolism in the midrange
- Microsomal stability in vitro CLint (in words) ([3]; Table 8): Low
- inhibition of cellular removal of CPDs / thymidine dimers (in words) ([4]; 8 J/m^2 UV-C, up to 24 h post-irradiation): significantly different; also recorded: significant inhibition of removal of CPDs
- CPDs removed over 24 hours after UV exposure ([4]; 8 J/m^2 UV, control approximately 80%): approximately 60%
- Serum protein binding (% bound) [5]: (99.9) % bound
- Serum protein binding (in words) [5]: Strong
- Hepatocyte stability in vitro CLint (in words) [6]: (medium
- enzyme activity after pre-incubation of ERCC1-XPF with compound (in words) ([7]; 3 μM compound, 10% or 5% DMSO): time-dependent loss of enzyme activity
- inhibition of ERCC1-XPF endonuclease activity (in words) [7]: marked capacity to inhibit; also recorded: potent inhibitors
- inhibition of ERCC1-XPF endonuclease activity (in words) ([7]; listed as Gen A-4): significantly better inhibitory properties
- quenching of protein fluorescence at 330 nm [8]: ~23±2%
